Source: ChEMBL document CHEMBL4196118, “Discovery of MK-8318, a Potent and Selective CRTh2 Receptor Antagonist for the Treatment of Asthma” (ACS Med Chem Lett, 2018)

What was measured:
[1] = molecular target: T1, Prostaglandin D2 receptor 2 (Homo sapiens, UniProt Q9Y5Y4); experiment: biochemical
T1 sequence (Q9Y5Y4 whole entry): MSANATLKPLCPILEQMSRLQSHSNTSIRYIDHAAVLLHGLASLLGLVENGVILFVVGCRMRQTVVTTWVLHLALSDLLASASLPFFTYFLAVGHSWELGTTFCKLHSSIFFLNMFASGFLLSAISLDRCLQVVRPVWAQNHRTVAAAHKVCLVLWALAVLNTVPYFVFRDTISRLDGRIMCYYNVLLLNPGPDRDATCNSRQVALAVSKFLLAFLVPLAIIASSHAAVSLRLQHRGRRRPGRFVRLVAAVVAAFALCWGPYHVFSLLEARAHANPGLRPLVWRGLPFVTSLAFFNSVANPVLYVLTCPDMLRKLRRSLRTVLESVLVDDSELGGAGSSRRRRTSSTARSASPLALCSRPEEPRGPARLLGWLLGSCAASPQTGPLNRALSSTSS
Description: Displacement of [3H]PGD2 from human CRTh2 expressed in HEK cell membranes after 60 mins by scintillation counting method

[2] = Intrinsic clearance in rat hepatocytes assessed per million cells; assay type: ADME, cell-based, Hepatocyte; conditions: read-out: CLH
[3] = molecular target: T1, Prostaglandin D2 receptor 2
Description: Antagonist activity at human CRTh2 expressed in CHOK1 cells assessed as inhibition of PGD2-induced beta-arrestin recruitment incubated for 30 mins followed by PGD2 stimulation measured after 60 mins by PathHunter based chemiluminescence assay

[4] = AUC (0 to 6 hrs) in rat at 0.5 mg/kg, iv; assay type: ADME, organism-based; parameters: time < 6 hr, dose 0.5 mg/kg, route intravenous; conditions: in vivo
[5] = molecular target: T1, Prostaglandin D2 receptor 2; remark: listed apart in the source
[6] = AUC (0 to 6 hrs) in rat at 2 mg/kg, iv; assay type: ADME, organism-based; parameters: time < 6 hr, dose 2 mg/kg, route intravenous; conditions: in vivo
[7] = molecular target: T1, Prostaglandin D2 receptor 2; experiment: […] activity at human CRTh2 expressed in HEK cells assessed as forskolin-induced intracellular cAMP accumulation by ELISA based chemiluminescence assay; assay type: functional, cell-based

O=C(O)CCC(=O)N(C1CC1)[C@H]1c2cc(-c3ccc(F)cc3)ccc2N(C(=O)c2ccc(OC(F)(F)F)cc2)[C@H]2CCC[C@H]21
Ki [1]: 0.11 µM

O=C(O)CCC(=O)N(C1CCC1)[C@H]1c2ccccc2N(C(=O)c2ccc(OC(F)(F)F)cc2)[C@H]2CCCC21 (single isomer, unassigned)
Ki [1]: 0.0086 µM

CC(C)(CC(=O)N(C1CC1)[C@H]1c2ccccc2N(C(=O)OCc2ccccc2)[C@H]2CCC[C@H]21)C(=O)O
Ki [1]: 7.8 µM

O=C(O)CCC(=O)N(C1CC1)[C@H]1c2ccccc2N(C(=O)c2cccc(OC(F)(F)F)c2)[C@H]2CC[C@H]21
hepatocyte CLint [2]: 15 µL/min/1e6 cells
IC50 [3]: 0.043 µM
AUC(0-t) at 6 h [4]: 310 nM·h
Ki [1]: 0.005 µM

O=C(O)CCC(=O)N(C1CC1)[C@H]1c2cc(-c3cncnc3)ccc2N(C(=O)c2ccc(OC(F)(F)F)cc2)[C@H]2CCC[C@H]21
Ki [1]: 0.3 µM

O=C(O)COC(=O)N(C1CC1)[C@H]1c2ccccc2N(C(=O)c2ccc(OC(F)(F)F)cc2)[C@H]2CC[C@H]21
IC50 [5]: 0.0009 µM
hepatocyte CLint [2]: 18 µL/min/1e6 cells
IC50 [3]: 0.0014 µM
Ki [1]: 0.0025 µM

O=C(O)CCC(=O)N(C1CC1)[C@H]1c2ccccc2N(C(=O)OCc2ccc(F)cc2)[C@H]2CCC[C@H]21
AUC(0-t) at 6 h [4]: 270 nM·h
Ki [1]: 0.012 µM

CC1(N(C(=O)CCC(=O)O)[C@H]2c3ccccc3N(C(=O)c3ccc(OC(F)(F)F)cc3)[C@H]3CCCC32)CC1 (single isomer, unassigned)
Ki [1]: 0.064 µM

O=C(O)CCC(=O)N(C1CC1)[C@H]1c2ccccc2N(C(=O)c2cccc(F)c2)[C@H]2CC[C@H]21
hepatocyte CLint [2]: 16 µL/min/1e6 cells
IC50 [3]: 0.0093 µM
AUC(0-t) at 6 h [4]: 300 nM·h
Ki [1]: 0.0081 µM

C[C@H](OC(=O)N1c2ccccc2[C@H](N(C(=O)CCC(=O)O)C2CC2)[C@@H]2CCC[C@@H]21)c1ccc(F)cc1
AUC(0-t) at 6 h [4]: 320 nM·h

O=C(O)CCC(=O)N(C1CC1)[C@H]1c2ccccc2N(C(=O)c2ccc(OC(F)(F)F)cc2)[C@H]2CCCC21 (single isomer, unassigned)
AUC(0-t) at 6 h [4]: 620 nM·h
Ki [1]: 0.007 µM

CCN(C(=O)CCC(=O)O)[C@H]1c2ccccc2N(C(=O)c2ccc(OC(F)(F)F)cc2)[C@H]2CCCC12 (single isomer, unassigned)
Ki [1]: 0.012 µM

CCN(C(C)=O)[C@H]1c2ccccc2N(C(=O)c2ccccc2)[C@H]2CCC[C@@H]12
IC50 [5]: 1.84 µM
Ki [1]: 0.026 µM

O=C(O)CCC(=O)N(C1CC1)[C@H]1c2cc(F)c(Cl)cc2N(C(=O)c2ccc(OC(F)(F)F)cc2)[C@H]2CCC[C@H]21
IC50 [5]: 0.018 µM
IC50 [3]: 0.012 µM
AUC(0-t) at 6 h [4]: 1050 nM·h
Ki [1]: 0.0034 µM

O=C(O)CCC(=O)N(C1CC1)C1c2ccccc2N(C(=O)OCc2ccccc2)C2CCCCC21 (racemic)
IC50 [5]: 0.175 µM
Ki [1]: 0.032 µM

O=C(O)CCC(=O)N(C1CC1)[C@H]1c2ccccc2N(C(=O)c2ccc(F)cc2)[C@H]2CC[C@H]21
IC50 [5]: 0.02 µM
hepatocyte CLint [2]: 14 µL/min/1e6 cells
IC50 [3]: 0.012 µM
AUC(0-t) at 6 h [4]: 460 nM·h
Ki [1]: 0.0073 µM

O=C(O)CCC(=O)N(C1CC1)[C@H]1c2ccc(F)cc2N(C(=O)c2ccc(OC(F)(F)F)cc2)[C@H]2CCC[C@H]21
AUC(0-t) at 6 h [4]: 43 nM·h

O=C(O)CCC(=O)N(C1CC1)[C@H]1c2ccccc2N(C(=O)c2ccc(OC(F)(F)F)cc2)[C@H]2CC[C@H]21
hepatocyte CLint [2]: 13 µL/min/1e6 cells

O=C(O)CCC(=O)N(CCC(F)(F)F)[C@H]1c2ccccc2N(C(=O)c2ccc(OC(F)(F)F)cc2)[C@H]2CCCC12 (single isomer, unassigned)
Ki [1]: 0.035 µM

CC(C)N(C(=O)CCC(=O)O)[C@H]1c2ccccc2N(C(=O)c2ccc(OC(F)(F)F)cc2)[C@H]2CCCC21 (single isomer, unassigned)
Ki [1]: 0.05 µM

O=C(O)COC(=O)N(C1CC1)[C@H]1c2ccccc2N(C(=O)c2cccc(F)c2)[C@H]2CC[C@H]21
IC50 [5]: 0.0008 µM
hepatocyte CLint [2]: 20 µL/min/1e6 cells
IC50 [3]: 0.0011 µM
Ki [1]: 0.0041 µM

O=C(O)CCC(=O)N(C1CC1)C1c2ccccc2N(C(=O)OCc2ccccc2)C2CCC21 (racemic)
IC50 [5]: 0.21 µM
Ki [1]: 0.025 µM

O=C(O)c1ccccc1C(=O)N(C1CC1)[C@H]1c2ccccc2N(C(=O)c2ccc(OC(F)(F)F)cc2)[C@H]2CCC[C@H]21
Ki [1]: 0.84 µM

O=C(O)CCC(=O)N(CC1CCC1)[C@H]1c2ccccc2N(C(=O)c2ccc(OC(F)(F)F)cc2)[C@H]2CCCC12 (single isomer, unassigned)
Ki [1]: 0.009 µM

O=C(O)COC(=O)N(C1CC1)C1c2ccccc2N(C(=O)c2ccccc2)C2CCCC21 (racemic)
Ki [1]: 0.0094 µM

O=C(O)CCC(=O)N(C1CC1)[C@H]1c2cc(C3CC3)ccc2N(C(=O)c2ccc(OC(F)(F)F)cc2)[C@H]2CCC[C@H]21
Ki [1]: 0.043 µM

CC(CC(=O)N(C1CC1)[C@H]1c2ccccc2N(C(=O)OCc2ccccc2)[C@H]2CCC[C@H]21)C(=O)O (some centres not stated)
Ki [1]: 0.51 µM

O=C(O)CCC(=O)N(C1CC1)C1c2ccccc2N(C(=O)c2ccccc2)C2CCCC21 (racemic)
IC50 [5]: 0.041 µM
Ki [1]: 0.01 µM

O=C(O)CCC(=O)N(C1CC1)[C@H]1c2ccccc2N(C(=O)Nc2ccccc2)[C@H]2CCC[C@H]21
Ki [1]: 0.056 µM

C[C@H](CC(=O)N(C1CC1)[C@H]1c2ccccc2N(C(=O)OCc2ccccc2)[C@H]2CCC[C@H]21)C(=O)O
Ki [1]: 0.082 µM

O=C(O)CCCC(=O)N(C1CC1)C1c2ccccc2N(C(=O)OCc2ccccc2)C2CCCC21 (racemic)
Ki [1]: 1.49 µM

O=C(O)CCC(=O)N(C1CC1)[C@H]1c2ccccc2N(c2nnc(-c3ccccc3)o2)[C@H]2CCC[C@H]21
Ki [1]: 0.028 µM

CN(C(=O)CCC(=O)O)[C@H]1c2ccccc2N(C(=O)c2ccc(OC(F)(F)F)cc2)[C@H]2CCCC12 (single isomer, unassigned)
Ki [1]: 0.016 µM

O=C(O)CCC(=O)N(C1CC1)[C@H]1c2ccccc2N(CC(=O)Nc2ccc(F)cc2)[C@H]2CCC[C@H]21
Ki [1]: 0.66 µM

C[C@@H](OC(=O)N1c2ccccc2[C@H](N(C(=O)CCC(=O)O)C2CC2)[C@@H]2CCC[C@@H]21)c1ccc(F)cc1
AUC(0-t) at 6 h [4]: 630 nM·h

CCc1ccc2c(c1)[C@H](N(C(=O)CCC(=O)O)C1CC1)[C@@H]1CCC[C@@H]1N2C(=O)c1ccc(OC(F)(F)F)cc1
Ki [1]: 0.031 µM

O=C(O)CCC(=O)N(C1CC1)[C@H]1c2cc(F)ccc2N(C(=O)c2ccc(SC(F)(F)F)cc2)[C@H]2CCC[C@H]21
IC50 [5]: 0.012 µM
IC50 [3]: 0.0024 µM
AUC(0-t) at 6 h [6]: 1870 nM·h
Ki [1]: 0.0084 µM

O=C(c1ccc(OC(F)(F)F)cc1)N1c2ccccc2[C@H](N(C(=O)CCc2nn[nH]n2)C2CC2)[C@@H]2CCC[C@@H]21
Ki [1]: 0.098 µM

CCN(c1nc(C(=O)O)cs1)[C@H]1c2ccccc2N(C(=O)OCc2ccccc2)[C@H]2CCC[C@@H]12
IC50 [5]: 2.92 µM
Ki [1]: 0.051 µM
EC50 [7]: 0.012 µM

O=C(O)CCC(=O)N(C1CC1)[C@H]1c2ccc(Cl)cc2N(C(=O)c2ccc(OC(F)(F)F)cc2)[C@H]2CCC[C@H]21
IC50 [5]: 0.11 µM
IC50 [3]: 0.059 µM
Ki [1]: 0.0023 µM

O=C(O)COC(=O)N(C1CC1)[C@H]1c2ccccc2N(C(=O)c2ccc(F)cc2)[C@H]2CC[C@H]21
IC50 [5]: 0.002 µM
hepatocyte CLint [2]: 13 µL/min/1e6 cells
IC50 [3]: 0.0014 µM
Ki [1]: 0.0035 µM

O=C(O)CCC(=O)N(C1CC1)[C@H]1c2cc(C(F)F)ccc2N(C(=O)c2ccc(OC(F)(F)F)cc2)[C@H]2CCC[C@H]21
Ki [1]: 0.014 µM
